The compounds below were run against T1, integrin α4β7 (RPMI8866 human cells adhering to MAdCAM-1) (Homo sapiens, UniProt P13612+P26010) (assay: Integrin α4β7-MAdCAM cell adhesion assay (RPMI8866 cells)). Conditions: RPMI8866 cells adhering to MAdCAM; read-out: RPMI8866 Adhesion α4β7/MAdCAM IC50.
T1 construct: RMP18866 cells, which express integrin α4β7; host or cells: RPMI8866
T1 sequence (P13612 34-1032): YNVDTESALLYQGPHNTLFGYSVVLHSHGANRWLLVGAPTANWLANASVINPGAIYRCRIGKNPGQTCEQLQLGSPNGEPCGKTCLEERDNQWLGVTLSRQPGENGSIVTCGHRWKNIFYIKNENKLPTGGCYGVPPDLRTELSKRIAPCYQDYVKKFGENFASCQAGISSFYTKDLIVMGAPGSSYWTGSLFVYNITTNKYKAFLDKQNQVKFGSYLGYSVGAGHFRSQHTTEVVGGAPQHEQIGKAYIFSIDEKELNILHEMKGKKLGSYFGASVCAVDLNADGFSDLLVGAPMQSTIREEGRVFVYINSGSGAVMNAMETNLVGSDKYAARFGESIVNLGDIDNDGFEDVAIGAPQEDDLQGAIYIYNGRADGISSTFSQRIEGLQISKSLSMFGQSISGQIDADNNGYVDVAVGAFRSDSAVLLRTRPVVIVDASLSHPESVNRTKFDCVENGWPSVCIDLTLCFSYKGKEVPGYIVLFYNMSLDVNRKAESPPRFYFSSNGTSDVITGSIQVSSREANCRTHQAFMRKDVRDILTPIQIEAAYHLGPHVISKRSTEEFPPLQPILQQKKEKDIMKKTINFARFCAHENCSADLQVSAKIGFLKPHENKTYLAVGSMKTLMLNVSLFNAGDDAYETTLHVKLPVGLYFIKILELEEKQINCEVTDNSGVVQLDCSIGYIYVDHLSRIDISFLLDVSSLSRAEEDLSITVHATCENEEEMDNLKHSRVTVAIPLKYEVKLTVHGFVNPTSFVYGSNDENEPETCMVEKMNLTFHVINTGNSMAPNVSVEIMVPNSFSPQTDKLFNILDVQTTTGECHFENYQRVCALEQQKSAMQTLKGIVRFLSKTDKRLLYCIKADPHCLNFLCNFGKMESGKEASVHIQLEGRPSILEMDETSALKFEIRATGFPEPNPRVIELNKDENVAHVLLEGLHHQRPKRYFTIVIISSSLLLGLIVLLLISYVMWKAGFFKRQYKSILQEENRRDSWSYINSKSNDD
T1 sequence (P26010 20-798): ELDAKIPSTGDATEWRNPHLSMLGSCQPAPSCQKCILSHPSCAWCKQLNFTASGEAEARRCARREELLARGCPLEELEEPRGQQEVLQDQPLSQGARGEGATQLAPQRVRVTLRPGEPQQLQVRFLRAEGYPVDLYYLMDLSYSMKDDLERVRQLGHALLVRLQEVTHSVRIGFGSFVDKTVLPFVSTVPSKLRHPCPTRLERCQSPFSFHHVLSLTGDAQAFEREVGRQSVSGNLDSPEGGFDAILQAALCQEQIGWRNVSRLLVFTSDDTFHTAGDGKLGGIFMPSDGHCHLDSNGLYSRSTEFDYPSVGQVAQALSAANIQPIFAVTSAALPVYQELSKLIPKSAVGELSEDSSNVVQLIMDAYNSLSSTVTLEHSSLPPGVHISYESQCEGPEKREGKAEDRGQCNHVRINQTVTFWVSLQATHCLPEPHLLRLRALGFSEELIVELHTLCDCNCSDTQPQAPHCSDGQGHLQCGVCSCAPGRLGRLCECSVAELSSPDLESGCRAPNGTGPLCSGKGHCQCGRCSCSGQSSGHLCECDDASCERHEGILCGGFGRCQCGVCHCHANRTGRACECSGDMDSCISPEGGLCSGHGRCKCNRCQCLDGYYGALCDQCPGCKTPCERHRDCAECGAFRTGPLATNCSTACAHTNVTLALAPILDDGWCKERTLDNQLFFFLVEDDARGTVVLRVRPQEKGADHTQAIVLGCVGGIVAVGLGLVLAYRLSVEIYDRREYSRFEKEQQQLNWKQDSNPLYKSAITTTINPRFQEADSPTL
Format: cell-based
Experimental: Integrin α4β7-MAdCAM Cell Adhesion Assay
RPMI8866 cells were resuspended at 10 million cells/ml in PBS containing […] and incubated at 37° C. for 30 min in a 50 ml tube. […] The plate was emptied by inverting and blotting on paper towels and washed manually twice with PBS. 100 μl PBS was then added to each well. […] To calculate the dose response, the fluorescence value of control wells not containing cells was subtracted from each test well.
Work on `CC(C)C[C@@H]1NC(=O)c2ccc(-c3ccc(N4CCN(C(=O)Cc5ccccc5C(=O)N5CCN(c6ccc(-c7ccc8cc7CNC(=O)[C@@H]7CCCN7[C@H](C(=O)NC(C)(C)C)[C@H](C)NC(=O)[C@H]([C@@H](C)O)NC(=O)[C@H](CC(=O)O)NC(=O)[C@H](CC(C)C)NC8=O)cc6)CC5)CC4)cc3)c(c2)CNC(=O)[C@@H]2CCCN2[C@H](C(=O)NC(C)(C)C)[C@H](C)NC(=O)[C@H]([C@@H](C)O)NC(=O)[C@H](CC(=O)O)NC1=O` [Compound 496] yielded an IC50 of 41 nM.
For `CC(C)C[C@@H]1NC(=O)c2ccc(-c3ccc(N4CCN(C(=O)c5cccc(C(=O)N6CCN(c7ccc(-c8ccc9cc8CNC(=O)[C@@H]8CCCN8[C@H](C(=O)NC(C)(C)C)[C@H](C)NC(=O)[C@H]([C@@H](C)O)NC(=O)[C@H](CC(=O)O)NC(=O)[C@H](CC(C)C)NC9=O)cc7)CC6)c5)CC4)cc3)c(c2)CNC(=O)[C@@H]2CCCN2[C@H](C(=O)NC(C)(C)C)[C@H](C)NC(=O)[C@H]([C@@H](C)O)NC(=O)[C@H](CC(=O)O)NC1=O` [Compound 497], the IC50 was 25 nM.
`CC(C)C[C@@H]1NC(=O)c2ccc(-c3ccc(N4CCN(C(=O)CN(C)CC(=O)N5CCN(c6ccc(-c7ccc8cc7CNC(=O)[C@@H]7CCCN7[C@H](C(=O)NC(C)(C)C)[C@H](C)NC(=O)[C@H]([C@@H](C)O)NC(=O)[C@H](CC(=O)O)NC(=O)[C@H](CC(C)C)NC8=O)cc6)CC5)CC4)cc3)c(c2)CNC(=O)[C@@H]2CCCN2[C@H](C(=O)NC(C)(C)C)[C@H](C)NC(=O)[C@H]([C@@H](C)O)NC(=O)[C@H](CC(=O)O)NC1=O` [Compound 501] was tested, and the IC50 was 38 nM.
For `CC(C)C[C@@H]1NC(=O)c2ccc(-c3ccc(N4CCN(C(=O)CCOCCOCCOCCOCCOCCOCCOCCOCCOCCOCCOCCOCCOCCC(=O)N5CCN(c6ccc(-c7ccc8cc7CNC(=O)[C@@H]7CCCN7[C@H](C(=O)NC(C)(C)C)[C@H](C)NC(=O)[C@H]([C@@H](C)O)NC(=O)[C@H](CC(=O)O)NC(=O)[C@H](CC(C)C)NC8=O)cc6)CC5)CC4)cc3)c(c2)CNC(=O)[C@@H]2CCCN2[C@H](C(=O)NC(C)(C)C)[C@H](C)NC(=O)[C@H]([C@@H](C)O)NC(=O)[C@H](CC(=O)O)NC1=O` [Compound 504], the IC50 was 42 nM.
`CC(C)C[C@@H]1NC(=O)c2ccc(-c3ccc(N4CCN(C(=O)COCCOCCOCC(=O)N5CCN(c6ccc(-c7ccc8cc7CNC(=O)[C@@H]7CCCN7[C@H](C(=O)NC(C)(C)C)[C@H](C)NC(=O)[C@H]([C@@H](C)O)NC(=O)[C@H](CC(=O)O)NC(=O)[C@H](CC(C)C)NC8=O)cc6)CC5)CC4)cc3)c(c2)CNC(=O)[C@@H]2CCCN2[C@H](C(=O)NC(C)(C)C)[C@H](C)NC(=O)[C@H]([C@@H](C)O)NC(=O)[C@H](CC(=O)O)NC1=O` [Compound 508] was tested, and the IC50 was 46 nM.
`CC(C)C[C@@H]1NC(=O)c2ccc(-c3ccc(N4CCN(C(=O)CCOCCOCCOCCOCCOCCC(=O)N5CCN(c6ccc(-c7ccc8cc7CNC(=O)[C@@H]7CCCN7[C@H](C(=O)NC(C)(C)C)[C@H](C)NC(=O)[C@H]([C@@H](C)O)NC(=O)[C@H](CC(=O)O)NC(=O)[C@H](CC(C)C)NC8=O)cc6)CC5)CC4)cc3)c(c2)CNC(=O)[C@@H]2CCCN2[C@H](C(=O)NC(C)(C)C)[C@H](C)NC(=O)[C@H]([C@@H](C)O)NC(=O)[C@H](CC(=O)O)NC1=O` [Compound 509] was tested, and the IC50 was 31 nM.
`CC(C)C[C@@H]1NC(=O)c2ccc(-c3ccc(N4CCN(C(=O)CCOCCOCCOCCOCCOCCOCCOCCC(=O)N5CCN(c6ccc(-c7ccc8cc7CNC(=O)[C@@H]7CCCN7[C@H](C(=O)NC(C)(C)C)[C@H](C)NC(=O)[C@H]([C@@H](C)O)NC(=O)[C@H](CC(=O)O)NC(=O)[C@H](CC(C)C)NC8=O)cc6)CC5)CC4)cc3)c(c2)CNC(=O)[C@@H]2CCCN2[C@H](C(=O)NC(C)(C)C)[C@H](C)NC(=O)[C@H]([C@@H](C)O)NC(=O)[C@H](CC(=O)O)NC1=O` [Compound 510] showed an IC50 of 87 nM.
With `CC(C)C[C@@H]1NC(=O)c2ccc(-c3ccc(N4CCN(C(=O)Cc5ccc(CC(=O)N6CCN(c7ccc(-c8ccc9cc8CNC(=O)[C@@H]8CCCN8[C@H](C(=O)NC(C)(C)C)[C@H](C)NC(=O)[C@H]([C@@H](C)O)NC(=O)[C@H](CC(=O)O)NC(=O)[C@H](CC(C)C)NC9=O)cc7)CC6)cc5)CC4)cc3)c(c2)CNC(=O)[C@@H]2CCCN2[C@H](C(=O)NC(C)(C)C)[C@H](C)NC(=O)[C@H]([C@@H](C)O)NC(=O)[C@H](CC(=O)O)NC1=O` [Compound 516] the IC50 was 98 nM.
`CC(C)C[C@@H]1NC(=O)[C@H]2CCCCN2C(=O)[C@H](Cc2ccc(CNC(=O)CCCCC(=O)NCc3ccc(C[C@@H]4NC(=O)[C@@H]5CCCN5[C@H](C(=O)NC(C)(C)C)[C@H](C)NC(=O)[C@H]([C@@H](C)O)NC(=O)[C@H](CC(=O)O)NC(=O)[C@H](CC(C)C)NC(=O)[C@H]5CCCCN5C4=O)cc3)cc2)NC(=O)[C@@H]2CCCN2[C@H](C(=O)NC(C)(C)C)[C@H](C)NC(=O)[C@H]([C@@H](C)O)NC(=O)[C@H](CC(=O)O)NC1=O` [Compound 523] was tested, and the IC50 was 434 nM.
Work on `CC(C)C[C@@H]1NC(=O)[C@H]2CCCCN2C(=O)[C@H](Cc2ccc(CNC(=O)CCCCCC(=O)NCc3ccc(C[C@@H]4NC(=O)[C@@H]5CCCN5[C@H](C(=O)NC(C)(C)C)[C@H](C)NC(=O)[C@H]([C@@H](C)O)NC(=O)[C@H](CC(=O)O)NC(=O)[C@H](CC(C)C)NC(=O)[C@H]5CCCCN5C4=O)cc3)cc2)NC(=O)[C@@H]2CCCN2[C@H](C(=O)NC(C)(C)C)[C@H](C)NC(=O)[C@H]([C@@H](C)O)NC(=O)[C@H](CC(=O)O)NC1=O` [Compound 524] yielded an IC50 of 447 nM.
`CC(C)C[C@@H]1NC(=O)[C@H]2Cc3ccccc3CN2C(=O)[C@H](Cc2cccc(CNC(=O)CCCCCCC(=O)NCc3cccc(C[C@@H]4NC(=O)[C@@H]5CCCN5[C@H](C(=O)NC(C)(C)C)[C@H](C)NC(=O)[C@H]([C@@H](C)O)NC(=O)[C@H](CC(=O)O)NC(=O)[C@H](CC(C)C)NC(=O)[C@H]5Cc6ccccc6CN5C4=O)c3)c2)NC(=O)[C@@H]2CCCN2[C@H](C(=O)NC(C)(C)C)[C@H](C)NC(=O)[C@H]([C@@H](C)O)NC(=O)[C@H](CC(=O)O)NC1=O` [Compound 528] was tested, and the IC50 was 47 nM.
Work on `CC(C)C[C@@H]1NC(=O)[C@H]2Cc3ccccc3CN2C(=O)[C@H](Cc2cccc(CNC(=O)CCCCCCCC(=O)NCc3cccc(C[C@@H]4NC(=O)[C@@H]5CCCN5[C@H](C(=O)NC(C)(C)C)[C@H](C)NC(=O)[C@H]([C@@H](C)O)NC(=O)[C@H](CC(=O)O)NC(=O)[C@H](CC(C)C)NC(=O)[C@H]5Cc6ccccc6CN5C4=O)c3)c2)NC(=O)[C@@H]2CCCN2[C@H](C(=O)NC(C)(C)C)[C@H](C)NC(=O)[C@H]([C@@H](C)O)NC(=O)[C@H](CC(=O)O)NC1=O` [Compound 529] yielded an IC50 of 47 nM.
`CC(C)C[C@@H]1NC(=O)C[C@H](CCCCN)N(C)C(=O)[C@H](CCCCNC(=O)CCC(=O)NCCCC[C@@H]2NC(=O)[C@@H]3CCCN3[C@H](C(=O)NC(C)(C)C)[C@H](C)NC(=O)[C@H]([C@@H](C)O)NC(=O)[C@H](CC(=O)O)NC(=O)[C@H](CC(C)C)NC(=O)C[C@H](CCCCN)N(C)C2=O)NC(=O)[C@@H]2CCCN2[C@H](C(=O)NC(C)(C)C)[C@H](C)NC(=O)[C@H]([C@@H](C)O)NC(=O)[C@H](CC(=O)O)NC1=O` [Compound 531] was tested, and the IC50 was 23 nM.

Source: US11713338B2, “Cyclic peptides multimers targeting α-4-β-7 integrin” (priority 2016, dated 2023)
